Reference: patent US9815796B2 (Merck Sharp & Dohme Corp., priority 2013, dated 2017)

target: Rhesus PDE2A3 (Macaca mulatta, UniProt B3VTJ2); test: PDE2 fluorescence polarization (IMAP FP) inhibition assay, rhesus enzyme; type: biochemical, rhesus macaque; conditions: Rhesus PDE2, Lab A; read-out: Rhesus PDE2 Ki (nM) - Lab A
Method: The activity of the compounds in accordance with the present invention as PDE2 inhibitors may be readily determined using a fluorescence polarization (FP) methodology (Huang, W., et al., J. Biomol Screen, 2002, 7: 215).
In a typical experiment the PDE2 inhibitory activity of the compounds of the present invention was determined in accordance with the following experimental method. Rhesus PDE2A3 was amplified from rhesus macaque brain cDNA (Biochain Institute, Hayward, Calif.) using primers based on human PDE2A sequence (accession NM_002599.3) where the forward primer containing a Kozak consensus was 5′-[…]-3′ and the reverse primer was 5′-[…]-3′. Amplification with Easy-A High-Fidelity PCR cloning enzyme (Stratagene, La Jolla, Calif.) was 95° C. for 2 minutes followed by thirty three cycles of 95° C. for 40 seconds, 52° C. for 30 seconds, and 72° C. for 2 minutes 48 seconds. Final extension was 72° C. for 7 minutes. The PCR product was TA cloned into pcDNA3.3-TOPO (Invitrogen, Carlsbad, Calif.) according to standard protocol. A consensus sequence was developed from multiple clones and then deposited into GenBank (EU812167). AD293 cells (Stratagene, La Jolla, Calif.) with 70-80% confluency were transiently transfected with rhesus PDE2A3/pcDNA3.3-TOPO using Lipofectamine 2000 according to manufacturer specifications (Invitrogen, Carlsbad, Calif.). Cells were harvested 48 hours post-transfection and lysed by sonication (setting 3, 10×5 sec pulses) in a buffer containing 20 mM HEPES pH 7.4, 1 mM EDTA and Complete Protease Inhibitor Cocktail Tablets (Roche, Indianapolis, Ind.). Lysate was collected by centrifugation at 75,000×g for 20 minutes at 4° C. and supernatant utilized for evaluation of PDE2 activity. The fluorescence polarization assay for cyclic nucleotide phosphodiesterases was performed using an IMAP® FP kit supplied by Molecular Devices, Sunnyvale, Calif. (product # R8139). […] Assays were performed at room temperature in 384-well microtiter plates with an incubation volume of 20.2 μL. Solutions of test compounds were prepared in DMSO and serially diluted with DMSO to yield 8 μL of each of 10 solutions differing by 3-fold in concentration, at 32 serial dilutions per plate. […] 0% of inhibition is determined by using DMSO (1% final concentrations).
A Labcyte Echo 555 (Labcyte, Sunnyvale, Calif.) is used to dispense 200 nL from each well of the titration plate to the 384 well assay plate. Ten microliters of a solution of enzyme (1/2000 final dilution from aliquots; sufficient to produce 20% substrate conversion) was added to the assay plate. Next 10 uL of a separate solution of the substrate FAM-labeled cAMP (50 nM final concentration product # R7506 from Molecular Devices) and the activator cGMP (1 uM final concentration), prepared in the assay buffer (10 mM Tris HCl, pH 7.2, 10 mM MgCl2, 0.05% NaN3 0.01% Tween-20, and 1 mM DTT) was added to the assay plate and shaken to mix. The reaction is allowed to proceed at room temperature for 60 minutes. A binding solution is then made from the kit components, comprised of 80% Solution A, 20% Solution B and binding reagent at a volume of 1/600 the total binding solution. The enzymatic reaction is stopped by addition of 60 μL of the binding solution to each well of the assay plates and the plates are sealed and shaken for 30 seconds. The plate was incubated at room temperature for at least one hour prior to determining the fluorescence polarization (FP). The parallel and perpendicular fluorescence of each well of the plate was measured using a Tecan Genios Pro plate reader (Tecan, Switzerland) or Perkin Elmer EnVision™ plate reader (Waltham, Mass.). Fluorescence polarization (mP) was calculated from the parallel (S) and perpendicular (P) fluorescence of each sample well and the analogous values for the median control well, containing only substrate (So and Po), using the following equation: Polarization (mP)=1000*(S/So−P/Po)/(S/So+P/Po).

Rhesus PDE2A3, sequence (B3VTJ2 1-941): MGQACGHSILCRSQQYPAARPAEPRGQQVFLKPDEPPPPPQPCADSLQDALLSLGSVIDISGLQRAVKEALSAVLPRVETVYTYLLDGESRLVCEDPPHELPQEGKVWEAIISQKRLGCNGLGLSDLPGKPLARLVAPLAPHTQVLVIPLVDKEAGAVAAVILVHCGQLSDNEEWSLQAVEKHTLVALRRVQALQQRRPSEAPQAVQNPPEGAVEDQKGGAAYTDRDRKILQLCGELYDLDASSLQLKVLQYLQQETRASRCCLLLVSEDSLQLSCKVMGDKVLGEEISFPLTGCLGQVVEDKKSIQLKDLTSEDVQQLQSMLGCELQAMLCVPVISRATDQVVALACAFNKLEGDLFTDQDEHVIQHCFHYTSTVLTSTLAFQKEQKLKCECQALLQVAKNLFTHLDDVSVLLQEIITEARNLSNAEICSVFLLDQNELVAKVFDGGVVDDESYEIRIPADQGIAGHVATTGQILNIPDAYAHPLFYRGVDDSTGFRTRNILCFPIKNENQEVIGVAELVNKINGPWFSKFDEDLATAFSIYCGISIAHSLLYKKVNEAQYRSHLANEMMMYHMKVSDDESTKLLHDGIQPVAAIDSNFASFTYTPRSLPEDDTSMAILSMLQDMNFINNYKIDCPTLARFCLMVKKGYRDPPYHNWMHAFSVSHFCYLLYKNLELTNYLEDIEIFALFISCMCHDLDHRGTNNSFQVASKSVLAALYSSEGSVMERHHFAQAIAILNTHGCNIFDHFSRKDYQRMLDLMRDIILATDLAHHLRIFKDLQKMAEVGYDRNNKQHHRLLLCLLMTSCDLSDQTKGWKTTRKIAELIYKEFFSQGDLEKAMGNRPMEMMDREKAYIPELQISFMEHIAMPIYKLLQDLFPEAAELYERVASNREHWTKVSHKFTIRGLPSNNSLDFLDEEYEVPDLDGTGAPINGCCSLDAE

Structure (SMILES) | Ki [nM]
O=C(c1cc(=O)[nH]c(-c2ccccc2)n1)N1CCCCC1c1ccc(C(F)(F)F)cc1 (centres unmarked) [Example 346, 2-phenyl-6-({2-[4-(trifluoromethyl)phenyl]piperidin-1-yl}carbonyl)pyrimidin-4(3H)-one] | 2350
COc1ccc(C(NC(=O)c2cc(=O)[nH]c(C3CC3)n2)c2ccc(C(F)(F)F)cc2)cc1 (centres unmarked) [Example 205, 2-cyclopropyl-N-{(4-methoxyphenyl)[4-(trifluoromethyl)phenyl]methyl}-6-oxo-1,6-dihydropyrimidine-4-carboxamide] | 694
CC(NC(=O)c1cc(=O)[nH]c(-c2ccccc2)n1)c1ccccc1C(F)(F)F (centres unmarked) [Example 169, 6-oxo-2-phenyl-N-{1-[2-(trifluoromethyl)phenyl]ethyl}-1,6-dihydropyrimidine-4-carboxamide] | 3420
COc1cc(C(F)(F)F)ccc1[C@@H](C)NC(=O)c1cc(=O)[nH]c(-c2ccccc2)n1 [Example 188, N-{(1R)-1-[2-methoxy-4-(trifluoromethyl)phenyl]ethyl}-6-oxo-2-phenyl-1,6-dihydropyrimidine-4-carboxamide] | 1010
Cc1cc(C(F)(F)F)ccc1CNC(=O)c1cc(=O)[nH]c(-c2ccccc2)n1 [Example 180, N-[2-methyl-4-(trifluoromethyl)benzyl]-6-oxo-2-phenyl-1,6-dihydropyrimidine-4-carboxamide] | 2050
O=C(NC1(c2ccc(C(F)(F)F)cc2)CCCC1)c1cc(=O)[nH]c(-c2ncccn2)n1 [Example 72, 6-oxo-N-{1-[4-(trifluoromethyl)phenyl]cyclopentyl}-1,6-dihydro-2,2′-bipyrimidine-4-carboxamide] | 333
COc1cc(C(C)NC(=O)c2cc(=O)[nH]c(C3CC3)n2)ccc1C(F)(F)F (centres unmarked) [Example 226, 2-cyclopropyl-N-{1-[3-methoxy-4-(trifluoromethyl)phenyl]ethyl}-6-oxo-1,6-dihydropyrimidine-4-carboxamide] | 505
Cc1cc(C(F)(F)F)ccc1CNC(=O)c1cc(=O)[nH]c(C2CC2)n1 [Example 228, 2-cyclopropyl-N-[2-methyl-4-(trifluoromethyl)benzyl]-6-oxo-1,6-dihydropyrimidine-4-carboxamide] | 1430

Second part, the compound after the results:

Ki [nM] | Structure (SMILES)
102 | CCC(NC(=O)c1cc(=O)[nH]c(C)n1)c1ccc(C(C)(C)C)cc1 (centres unmarked) [Example 12, N-[1-(4-tert-butylphenyl)propyl]-2-methyl-6-oxo-1,6-dihydropyrimidine-4-carboxamide]
1810 | COc1cc(-c2ccc([C@@H](C)NC(=O)c3cc(=O)[nH]c(C)n3)cc2)ccn1 [Example 317, (R)—N-(1-(4-(2-methoxypyridin-4-yl)phenyl)ethyl)-2-methyl-6-oxo-1,6-dihydropyrimidine-4-carboxamide]
1420 | Cc1nc(C(=O)NC(c2ccccc2)c2ccc(C(F)(F)F)cc2)cc(=O)[nH]1 (centres unmarked) [Example 34, 2-methyl-6-oxo-N-{phenyl[4-(trifluoromethyl)phenyl]methyl}-1,6-dihydropyrimidine-4-carboxamide]
2.6 | CC[C@@H](NC(=O)c1cc(=O)[nH]c(-c2ncccn2)n1)c1ccc(SC(F)(F)F)cc1 [Example 100, 6-oxo-N-[(1R)-1-{4-[(trifluoromethyl)sulfanyl]phenyl]propyl]-1,6-dihydro-2,2′-bipyrimidine-4-carboxamide]
6850 | C[C@@H](NC(=O)c1cc(=O)[nH]c(-c2ccccc2)n1)c1ccc(CN(C)C)cc1 [Example 365, N-[(1R)-1-{4-[(dimethylamino)methyl]phenyl}ethyl]-6-oxo-2-phenyl-1,6-dihydropyrimidine-4-carboxamide]
4740 | COc1ccc2cc(C(C)NC(=O)c3cc(=O)[nH]c(C)n3)ccc2c1 (single isomer, unassigned) [Example 314, (S)- or (R)-N-[1-(6-methoxynaphthalen-2-yl)ethyl]-2-methyl-6-oxo-1,6-dihydropyrimidine-4-carboxamide]
2500 | Cc1nc(C(=O)NC(C)c2ccc(-c3ccccc3)cc2)cc(=O)[nH]1 (single isomer, unassigned) [Example 308, (S)- or (R)-N-(1-biphenyl-4-ylethyl)-2-methyl-6-oxo-1,6-dihydropyrimidine-4-carboxamide]
1110 | COCc1nc(C(=O)NC(CO)c2ccc(C(F)(F)F)cc2)cc(=O)[nH]1 (centres unmarked) [Example 112, N-{2-hydroxy-1-[4-(trifluoromethyl)phenyl]ethyl}-2-(methoxymethyl)-6-oxo-1,6-dihydropyrimidine-4-carboxamide]
911 | Cc1nc(C(=O)N[C@H](C)c2ccc(-c3ccc(C(F)(F)F)nc3)cc2)cc(=O)[nH]1 [Example 321, 2-methyl-6-oxo-N-[(1R)-1-{4-[6-(trifluoromethyl)pyridin-3-yl]phenyl}ethyl]-1,6-dihydropyrimidine-4-carboxamide]

same assay, conditions: Rhesus PDE2, Lab B; read-out: Rhesus PDE2 Ki (nM) - Lab B

Structure (SMILES) | Ki [nM]
C[C@H](O)[C@@H](NC(=O)c1cc(=O)[nH]c(-c2ncccn2)n1)c1ccc(C(F)(F)F)cc1 [Example 430, N-{(1S,2)S-2-hydroxy-1-[4-(trifluoromethyl)phenyl]propyl}-6-oxo-1,6-dihydro-2,2′-bipyrimidine-4-carboxamide] | > 2970
CC(C)(NC(=O)c1cc(=O)[nH]c(-c2ccccc2)n1)c1ccc(S(F)(F)(F)(F)F)cc1 [Example 679, N-{1-methyl-1-[4-(pentafluoro-λ^6-sulfanyl)phenyl]ethyl}-6-oxo-2-phenyl-1,6-dihydropyrimidine-4-carboxamide] | 90
COc1ccc(C(NC(=O)c2cc(=O)[nH]c(-c3ccccc3)n2)c2ccc(C(F)(F)F)cc2)cc1 (centres unmarked) [Example 381, N-{(4-methoxyphenyl)[4-(trifluoromethyl)phenyl]methyl}-6-oxo-2-phenyl-1,6-dihydropyrimidine-4-carboxamide] | ~20400
Cc1nc(C(=O)N[C@H](C)c2cc(F)c(C(F)(F)F)cc2F)cc(=O)[nH]1 [Example 616] | 112
C[C@@H](NC(=O)c1cc(=O)[nH]c(-c2ncccn2)n1)c1cc(F)c(C(F)(F)F)cc1F [Example 429, N-{(1R)-1-[2,5-difluoro-4-(trifluoromethyl)phenyl]ethyl}-6-oxo-1,6-dihydro-2,2′-bipyrimidine-4-carboxamide] | 42
CC(NC(=O)c1cc(=O)[nH]c(-c2ccccc2)n1)c1cccc(C(F)(F)F)c1 (centres unmarked) [Example 395, 6-oxo-2-phenyl-N-{1-[3-(trifluoromethyl)phenyl]ethyl}-1,6-dihydropyrimidine-4-carboxamide] | 2050

Other lines, results leading:

Ki [nM] | Structure (SMILES)
473 | Cc1nc(C(=O)NC(C)c2ccc(C(C)(C)C(F)(F)F)cc2)cc(=O)[nH]1 (single isomer, unassigned) [Example 695, (R)- or (S)-2-methyl-6-oxo-N-(1-(4-(1,1,1-trifluoro-2-methylpropan-2-yl)phenyl)ethyl)-1,6-dihydropyrimidine-4-carboxamide]
583 | C[C@@H](NC(=O)c1cc(=O)[nH]c(-c2nccs2)n1)c1ccc(C(F)(F)F)cc1 [Example 674, (R)-6-oxo-2-(thiazol-2-yl)-N-(1-(4-(trifluoromethyl)phenyl)ethyl)-1,6-dihydropyrimidine-4-carboxamide]
> 2970 | Cc1nc(C(=O)NC(c2ccc(SC(F)(F)F)c(F)c2)C2(C)CC2)cc(=O)[nH]1 (single isomer, unassigned) [Example 703, (S)- or (R)-N-((3-fluoro-4-((trifluoromethyl)thio)phenyl)(1-methylcyclopropyl)methyl)-2-methyl-6-oxo-1,6-dihydropyrimidine-4-carboxamide]
